The text below walks through data of patent US20100286090A1, “Treatment of Multiple Myeloma” (BRISTOL-MYERS SQUIBB COMPANY, priority 2005, published 2010).

This experiment relates to MM cell lines. In words: effect of dasatinib on cell viability of MM cell lines. The class given is cell-based. To be noted: Homo sapiens; in 8/15 MM cell lines tested. The source says:
FIG. 1 illustrates results obtained on the effect of dasatinib at varying concentrations on the cell viability of certain MM cell lines.
Described herein are studies on the oral, multi-targeted kinase inhibitor dasatinib (BMS-354825, Bristol-Myers Squibb Co.) which inhibits BCR-ABL, SRC, c-KIT, PDGF-R, and ephrin (EPH) receptor kinases. Although BCR-ABL and c-KIT are not primary oncogenes driving MM proliferation and survival, dasatinib was studied because of (a) emerging data from our laboratory (CS Mitsiades, unpublished observations) on the expression patterns of EPH receptors in MM cell lines and primary tumor specimens; and (b) the roles of PDGF-R and SRC in tumor-microenvironment interactions, e.g., pericyte function in angiogenesis and osteoclast-mediated bone resorption, respectively.
Dasatinib is active against human MM cells which are resistant to conventional or other investigational treatments. […] For those cell lines highly responsive to dasatinib, their IC50 was in a range of concentrations which are deemed clinically achievable levels (based on data derived from the ongoing clinical trials of this compound in other disease setting).

Some results are limits rather than exact numbers.

Usually IC50 stands for the point on the concentration scale where inhibition reaches its midpoint. A higher IC50 goes with lower potency.

On to `Cc1nc(Nc2ncc(C(=O)Nc3c(C)cccc3Cl)s2)cc(N2CCN(CCO)CC2)n1` [dasatinib], for which the IC50 is less than 0.1 µM.
